Measured values from patent US7030139B2, “Compounds” (AstraZeneca AB, priority 2001, dated 2006).
Where two headings read alike, the source gives them in different places.

Columns and labels:
hCB2 [1] = target: T1, hCB2 (Homo sapiens, UniProt P34972); assay: hCB2 GTPγS binding; type: biochemical
T1 construct: purchased BioSignal

hCB2 [2] = target: T1, hCB2; assay: hCB2 receptor binding (3H-CP55,940 displacement, membranes)
hCB2-Sf9 = target: T2, hCB2-Sf9 (Homo sapiens, UniProt P34972); assay: Ki hCB2-Sf9 binding (compounds made in a plate); details: Table 2, printed in the IC50 (nM) column; n = 2; measured from 2 compounds made in a plate
T2 construct: host or cells: Sf9 (inferred from the head 'hCB2-Sf9')
T2 sequence (P34972 whole entry): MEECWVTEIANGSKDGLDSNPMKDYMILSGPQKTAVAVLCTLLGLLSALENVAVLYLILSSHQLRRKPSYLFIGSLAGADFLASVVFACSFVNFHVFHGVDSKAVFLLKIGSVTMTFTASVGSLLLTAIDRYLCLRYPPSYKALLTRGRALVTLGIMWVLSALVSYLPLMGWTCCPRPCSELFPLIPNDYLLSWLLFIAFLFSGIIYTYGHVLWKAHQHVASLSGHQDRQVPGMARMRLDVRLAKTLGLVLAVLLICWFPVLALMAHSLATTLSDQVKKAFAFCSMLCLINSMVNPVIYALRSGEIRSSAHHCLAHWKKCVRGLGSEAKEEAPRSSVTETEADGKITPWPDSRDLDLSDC

T1 sequence (P34972 whole entry): as above

Compound | Emax (hCB2 [1]) [%] | EC50 (hCB2 [1]) [nM] | IC50 (hCB2 [2]; hCB2 IC50 (nM)) [nM] | further results
CCOc1ccc(C(C)c2nc3cc(N(C)C(=O)CC(C)C)ccc3n2CC2CC2)cc1 (stereo not shown) [Example 52, N-[1-(Cyclopropylmethyl)-2-[1-(4-ethoxyphenyl)ethyl]-1H-benzimidazol-5-yl]-N,3-dimethyl-butanamide] | 41 | – | – | –
CCOc1ccc(Cc2nc3cc(C(=O)N(CC)CC)cnc3n2Cc2ccc([N+](=O)[O-])s2)cc1 [Example 57, 2-[(4-Ethoxyphenyl)methyl]-N,N-diethyl-3-[(5-nitro-2-thienyl)methyl]-3H-imidazo[4,5-b]pyridine-6-carboxamide] | 72 | 2.8 | 9.5 | –
C=CCNc1ccc2c(c1)nc(Cc1ccc(OCC)cc1)n2CC1CC1 [Example 33, N-Allyl-1-(cyclopropylmethyl)2-(4-ethoxybenzyl)-1H-benzimidazol-5-amine] | – | – | – | EC50 (hCB2 [1]; Table 1, GTPγS binding, human CB2 membranes, read-out: EC50, hCB2, nM): 146 nM; Emax (hCB2 [1]; Table 1, GTPγS binding, maximal stimulated binding defined with 1 μM Win 55,212-2, read-out: % Emax, hCB2): 54%; Ki (hCB2 [2]; Table 1, human CB2 membranes, 3H-CP55,940, read-out: Ki(hCB2)): 308 nM
CCOc1ccc(C(C)c2nc3cc(N(C)C(=O)NC(C)C)ccc3n2CC2CC2)cc1 (single isomer, unassigned; (-)) [Example 54, (−)-N-[1-(Cyclopropylmethyl)-2-[1-(4-ethoxyphenyl)ethyl]-1H-benzimidazol-5-yl]-N-methyl-N′-(1-methylethyl)-urea] | 66 | 3.4 | 15.5 | –
CCOc1ccc(Cc2nc3cc(C(=O)N(CC)CC)ccc3n2Cc2ccsc2)cc1 [Example 40, 2-[(4-Ethoxyphenyl)methyl]-N,N-diethyl-1-(3-thienylmethyl)-1H-benzimidazole-5-carboxamide] | 74 | 1.2 | 2.8 | –
CCOc1ccc(C(C)c2nc3cc(N(C)C(=O)NC(C)C)ccc3n2CC2CC2)cc1 (racemic) [Example 53, (rac)-N-[1-(Cyclopropylmethyl)-2-[1-(4-ethoxyphenyl)ethyl]1H-benzimidazol-5-yl]-N-methyl-N′-(1-methylethyl)-urea] | 46 | 6.7 | 36 | –
CCOc1ccc(C(O)c2nc3cc(C(=O)N(CC)CC)ccc3n2CCC(C)C)cc1 (stereo not shown) [Example 46, 2-[(4-Ethoxyphenyl)hydroxymethyl]-N,N-diethyl-(3-methylbutyl)-1H-benzimidazole-5-carboxamide] | 70 | 69 | 100 | –
CCOc1ccc(Cc2nc3cc(N(C)S(=O)(=O)c4ccccc4)cnc3n2CC2CC2)cc1 [Example 61, N-[3-(Cyclopropylmethyl)-2-[(4-ethoxyphenyl)methyl]-3H-imidazo[4,5-b]pyridin-6-yl]-N-methyl-benzenesulfonamide] | – | – | – | Ki (hCB2-Sf9): 11.4 nM
CCOc1ccc(C(C)c2nc3cc(N(C)C(=O)NC(C)C)ccc3n2CC2CCCCC2)cc1 (stereo not shown) [Example 56, N-[1-(Cyclohexylmethyl)-2-[1-(4-ethoxyphenyl)ethyl]-1H-benzimidazol-5-yl]-N-methyl-N′-(1-methylethyl)-urea] | 88 | 1.5 | 5.4 | –
CCOc1ccc(Cc2nc3cc(CN4CCOCC4)ccc3n2CC2CC2)cc1 [Example 24, 1-(Cyclopropylmethyl)-2-(4-ethoxybenzyl)-5-(4-morpholinylmethyl)-1H-benzimidazole] | – | 81 | – | Emax (hCB2 [1]; read-out: % Emax, hCB2): 62%; Ki (hCB2 [2]): 178 nM
CCOc1ccc(C(C)c2nc3cc(N(C)C(=O)NC(C)C)ccc3n2CC2CC2)cc1 (single isomer, unassigned; (+)) [Example 55, (+)-N-[1-(Cyclopropylmethyl)-2-[1-(4-ethoxyphenyl)ethyl]-1H-benzimidazol-5-yl]-N-methyl-N′-(1-methylethyl)-urea] | – | – | 715 | –
CCOc1ccc(Nc2nc3cc(C(=O)N(CC)CC)ccc3n2CCC(C)C)cc1 [Example 39, 2-(4-Ethoxyanilino)-N,N-diethyl-1-isopentyl-1H-benzimidazole-5-carboxamide] | – | 64 | – | Emax (hCB2 [1]; read-out: % Emax, hCB2): 64%; Ki (hCB2 [2]): 98 nM
CCOc1ccc(Cc2nc3cc(N(C)S(=O)(=O)c4cccs4)cnc3n2CC2CC2)cc1 [Example 62, N-[3-(Cyclopropylmethyl)-2-[(4-ethoxyphenyl)methyl]-3H-imidazo[4,5-b]pyridin-6-yl]-N-methyl-2-thiophenesulfonamide] | – | – | – | Ki (hCB2-Sf9): 4.5 nM
CCOc1ccc(Cc2nc3cc(C(=O)N(CC)CC)ccc3n2CC2CC2)cn1 [Example 13, 1-(Cyclopropylmethyl)-2-[(6-ethoxy-3-pyridinyl)methyl]-N,N-diethyl-1H-benzimidazole-5-carboxamide] | – | 97 | – | Emax (hCB2 [1]; read-out: % Emax, hCB2): 93%; Ki (hCB2 [2]): 133 nM
CCOc1ccc(Cc2nc3cc(N(C)C(=O)CC(C)C)cnc3n2CC2CC2)cc1 [Example 59, N-[3-(Cyclopropylmethyl)-2-[(4-ethoxyphenyl)methyl]-3H-imidazo[4,5-b]pyridin-6-yl]-N,3-dimethyl-butanamide] | 67 | 64 | 328 | –
CCOc1ccc(Cc2nc3cc(NC(=O)OC)ccc3n2CC2CC2)cc1 [Example 26, Methyl-1-(cyclopropylmethyl)-2-(4-ethoxybenzyl)-1H-benzimidazol-5-yl carbamate] | – | – | – | % Emax, hCB2 (hCB2 [1]): 295(41%); EC50 (hCB2 [1]; read-out: EC50, hCB2, nM): 295 nM
CCOc1ccc(Cc2nc3cc(C(=O)N(CC)CC)ccc3n2CCC(=O)OC)cc1 [Example 5, Methyl 3-[5-[(diethylamino)carbonyl]-2-(4-ethoxybenzyl)-1H-benzimidazol-1-yl]propanoate] | – | 65 | – | Emax (hCB2 [1]; read-out: % Emax, hCB2): 53%; Ki (hCB2 [2]): 142 nM
CCOc1ccc(Cc2nc3cc(N(C)C(=O)CC(C)C)ccc3n2Cc2ccc(COC(C)=O)o2)cc1 [Example 49, N-[1-[[5-[(Acetyloxy)methyl]-2-furanyl]methyl]-2-[(4-ethoxyphenyl)methyl]-1H-benzimidazol-5-yl]-N,3-dimethyl-butanamide] | 67 | 6.8 | 32 | –
CCOc1ccc(Cc2nc3cc(N(C)C(=O)CC(C)C)ccc3n2Cc2ccsc2)cc1 [Example 47, N-[2-[(4-Ethoxyphenyl)methyl]-1-(3-thienylmethyl)1H-benzimidazol-5-yl]-N,3-dimethyl-butanamide] | 70 | 1.4 | 3.3 | –
CCOc1ccc(Cc2nc3cc(C(=O)N(CC)CC)ccc3n2C[C@@H]2CCCO2)cc1 [Example 42] | 76 | 5 | 23 | –
CCOc1ccc(Cc2nc3cc(N(C)C(=O)NC(C)C)cnc3n2CC2CC2)cc1 [Example 60, N-[3-(Cyclopropylmethyl)-2-[(4-ethoxyphenyl)methyl]-3H-imidazo[4,5-b]pyridin-6-yl]-N-methyl-N′-(1-methylethyl)-urea] | – | – | – | IC50 (hCB2 [2]; read-out: hCB2 IC50): 970 nM
